Experimental data from the supplement of paper PMC10307832.

Columns and labels:
Experiment in all cases: relative viability (nuclei count vs DMSO), 5 days (fraction); higher = more cells survive
Vismodegib + Foretinib = compound: CS(=O)(=O)c1ccc(C(=O)Nc2ccc(Cl)c(-c3ccccn3)c2)c(Cl)c1 [Vismodegib] + COc1cc2c(Oc3ccc(NC(=O)C4(C(=O)Nc5ccc(F)cc5)CC4)cc3F)ccnc2cc1OCCCN1CCOCC1 [Foretinib] (partner 0.25 µM)
How it was run: (§1)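 One day after seeding in 1536-well plates, lung cancer cell lines were dosed by pin tool. Dosing was either single-drug or a fixed anchor-drug dose plus five library-drug doses (not always all listed) in √10 steps. After 5 days, nuclei were stained in one fix-and-stain step and counted on 4× images, and relative viability is the nuclei count of treated wells over that of vehicle wells, given as the median of duplicate plates.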

Vismodegib + Bortezomib = compound: CS(=O)(=O)c1ccc(C(=O)Nc2ccc(Cl)c(-c3ccccn3)c2)c(Cl)c1 [Vismodegib] + CC(C)C[C@H](NC(=O)[C@H](Cc1ccccc1)NC(=O)c1cnccn1)B(O)O [Bortezomib] (partner 0.002 µM)
How it was run: as §1

VE-821 + Decitabine = compound: CS(=O)(=O)c1ccc(-c2cnc(N)c(C(=O)Nc3ccccc3)n2)cc1 [VE-821] + Nc1ncn([C@H]2C[C@H](O)[C@@H](CO)O2)c(=O)n1 [Decitabine] (partner 2 µM)
How it was run: as §1

Cell Line | relative viability (Vismodegib + Foretinib; first compound 0.08 µM) | relative viability (Vismodegib + Foretinib; first compound 0.253 µM) | relative viability (Vismodegib + Foretinib; first compound 0.8 µM) | relative viability (Vismodegib + Foretinib; first compound 2.53 µM) | relative viability (Vismodegib + Foretinib; first compound 8 µM) | relative viability (Vismodegib + Bortezomib; first compound 0.253 µM) | relative viability (Vismodegib + Bortezomib; first compound 0.8 µM) | relative viability (Vismodegib + Bortezomib; first compound 2.53 µM) | relative viability (Vismodegib + Bortezomib; first compound 8 µM) | relative viability (VE-821 + Decitabine; first compound 0.08 µM) | relative viability (VE-821 + Decitabine; first compound 0.253 µM) | relative viability (VE-821 + Decitabine; first compound 0.8 µM) | relative viability (VE-821 + Decitabine; first compound 2.53 µM) | relative viability (VE-821 + Decitabine; first compound 8 µM) | relative viability (Vismodegib + Bortezomib; first compound 0.08 µM)
HCC-78 | 0.515 | 0.538 | 0.511 | 0.593 | 0.532 | 0.498 | 0.488 | 0.549 | 0.4 | 0.619 | 0.597 | 0.719 | 0.785 | 0.699 | –
HCC-366 | 0.893 | 0.925 | 0.877 | 0.956 | 0.864 | 1.03 | 1.06 | 0.934 | 1.06 | 0.398 | 0.381 | 0.323 | 0.226 | 0.121 | 1.06
NCI-H2023 | 0.974 | 0.804 | 0.881 | 0.834 | 0.999 | 0.889 | 0.915 | 1.02 | 0.943 | 0.249 | 0.259 | 0.205 | 0.194 | 0.13 | 0.906
NCI-H1734 | 0.875 | 0.869 | 0.876 | 0.772 | 0.946 | 0.835 | 0.949 | 0.858 | 1.03 | 0.585 | 0.473 | 0.515 | 0.522 | 0.448 | 0.89
SK-LU-1 | 0.76 | 0.821 | 0.875 | 0.753 | 0.818 | – | 0.979 | 1.1 | 1.16 | 0.684 | 0.671 | 0.522 | 0.612 | 0.475 | 1.17
NCI-H3122 | 0.994 | 0.938 | 0.849 | 0.858 | 1.02 | 1.05 | 1.01 | 0.986 | 0.935 | 0.474 | 0.482 | 0.485 | 0.46 | 0.428 | 1.03
CAL-12T | 1.08 | 1.06 | 1.05 | 1.06 | 1.16 | 0.882 | 0.91 | 0.935 | 0.999 | – | – | – | – | – | –
NCI-H522 | – | – | – | – | – | – | – | – | – | 0.678 | 0.67 | 0.7 | 0.727 | 0.638 | –
HARA | 0.977 | 0.992 | 0.41 | 0.805 | 1.03 | 1.1 | 1.11 | 1.19 | 1.17 | 0.551 | 0.636 | 0.613 | 0.615 | 0.516 | 1.08
NCI-H1666 | 1.01 | 0.935 | 1.05 | 0.925 | 0.936 | 0.765 | 0.906 | 0.722 | 0.956 | 0.698 | 0.702 | 0.786 | 0.753 | 0.688 | 0.755
NCI-H460 | 0.948 | 0.951 | 1.04 | 0.975 | 1.08 | 0.929 | 1.19 | 0.998 | 1.2 | 0.554 | 0.543 | 0.366 | 0.276 | 0.0965 | 1.13
NCI-H1792 | – | – | – | – | – | 0.974 | 0.929 | 0.946 | 0.93 | 0.639 | 0.536 | 0.482 | 0.586 | 0.529 | 0.953
NCI-H2087 | 1.09 | 1.1 | 0.985 | 1.13 | 0.938 | 0.786 | 0.699 | 0.587 | 0.836 | 0.381 | 0.286 | 0.309 | 0.363 | 0.275 | 0.745
Calu-6 | 0.761 | 0.837 | 0.863 | 0.852 | 0.9 | 1.03 | 1.02 | 1.05 | 0.987 | – | – | – | – | – | 0.969
IA-LM | 1.2 | 1.15 | 1.28 | 1.04 | 1.2 | 0.825 | 0.867 | 0.754 | 0.795 | – | – | – | – | – | 0.892
NCI-H1355 | 0.92 | 0.988 | 0.904 | 0.997 | 0.987 | 1.18 | 1.12 | 1.1 | 1.11 | 0.362 | 0.347 | 0.333 | 0.371 | 0.36 | 1.23
NCI-H838 | 0.987 | 0.979 | 0.997 | 1.06 | 1.03 | 1.11 | 0.679 | 0.817 | 1.05 | 0.461 | 0.488 | 0.564 | 0.559 | 0.456 | 0.603
NCI-H1793 | – | 0.524 | 0.616 | 0.848 | 0.609 | – | – | – | – | 0.55 | 0.468 | – | 0.637 | 0.461 | –
LK-2 | 1.14 | 0.974 | 1.13 | 1.34 | 1.38 | – | – | – | – | 0.323 | 0.338 | 0.415 | 0.384 | 0.256 | –
NCI-H1395 | 0.918 | 0.873 | 0.999 | 0.961 | 1.03 | – | – | – | – | 0.733 | 0.672 | 0.74 | 0.74 | 0.638 | –
NCI-H1648 | – | – | – | – | – | – | – | – | – | 0.658 | – | 0.54 | 0.498 | 0.471 | –
NCI-H2228 | 0.866 | 1.02 | 0.871 | 0.769 | 1.01 | 0.954 | 0.958 | 0.835 | 0.965 | – | – | – | – | – | 1.08
NCI-H1944 | 0.851 | 0.794 | 0.897 | 0.878 | 0.942 | – | – | – | – | 0.418 | 0.408 | 0.418 | 0.438 | 0.343 | –
NCI-H1703 | 0.383 | 0.344 | 0.379 | 0.336 | 0.316 | 0.257 | 0.372 | 0.342 | 0.401 | – | – | – | – | – | 0.368
NCI-H1299 | 1.06 | 1.11 | 1.13 | 1.07 | 1.09 | 0.985 | 1.04 | 1.01 | 0.973 | – | – | – | – | – | 1.01
SK-MES-1 | 0.865 | 0.91 | 0.961 | 0.889 | 0.918 | – | – | – | – | 0.373 | 0.406 | 0.38 | 0.361 | 0.284 | –
NCI-H2170 | 0.996 | 1 | 1.04 | 1.02 | 1.08 | – | – | – | – | 0.515 | 0.469 | 0.487 | 0.434 | 0.295 | –
